Experimental data reported in PubChem BioAssay AID1259411 (Chemical Carcinogenesis Research Information System (CCRIS), 2018).
The source made the active and inactive calls. The rule behind the calls is not given here.

Tested on: rodent carcinogenicity bioassays, tumor incidence
Test: CCRIS carcinogenicity studies
Summary of the method: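 NCI-built, expert-reviewed records of carcinogenicity and related test outcomes (mutagenicity, tumor promotion/inhibition) compiled from published and report sources, historical span 1985-2011, not updated.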

[1] = Species: RAT, Strain/Sex: F344/FEMALE, Route: ORAL, Dose: 0, 3000, 6000 PPM IN DIET, Dose: 0, 3000, 6000 PPM IN DIET
[2] = Species: RAT, Strain/Sex: F344/MALE, Route: ORAL, Dose: 0, 3000, 6000 PPM IN DIET, Dose: 0, 3000, 6000 PPM IN DIET

Structure (SMILES): ClC1=C(Cl)C(Cl)(Cl)C(Cl)=C1Cl
- carcinogen call (Species: MOUSE, Strain/Sex: B6C3F1/FEMALE, Route: INHALATION, Dose: 0, 0.01, 0.05, 0.2 PPM IN AIR 6 HR/D 5 D/WK FOR 104 WK (STUDY DURATION: 104 WK), Dose: 0, 0.01, 0.05, 0.2 PPM IN AIR 6 HR/D 5 D/WK FOR 104 WK (STUDY DURATION: 104 WK)): inactive; negative
- carcinogen call (Species: MOUSE, Strain/Sex: B6C3F1/MALE, Route: INHALATION, Dose: 0, 0.01, 0.05, 0.2 PPM IN AIR 6 HR/D 5 D/WK FOR 104 WK (STUDY DURATION: 104 WK), Dose: 0, 0.01, 0.05, 0.2 PPM IN AIR 6 HR/D 5 D/WK FOR 104 WK (STUDY DURATION: 104 WK)): inactive; negative
- carcinogen call (Species: RAT, Strain/Sex: F344/FEMALE, Route: INHALATION, Dose: 0, 0.01, 0.05, 0.2 PPM IN AIR 6 HR/D 5 D/WK FOR 104 WK (STUDY DURATION: 104 WK), Dose: 0, 0.01, 0.05, 0.2 PPM IN AIR 6 HR/D 5 D/WK FOR 104 WK (STUDY DURATION: 104 WK)): inactive; negative
- carcinogen call (Species: RAT, Strain/Sex: F344/MALE, Route: INHALATION, Dose: 0, 0.01, 0.05, 0.2 PPM IN AIR 6 HR/D 5 D/WK FOR 104 WK (STUDY DURATION: 104 WK), Dose: 0, 0.01, 0.05, 0.2 PPM IN AIR 6 HR/D 5 D/WK FOR 104 WK (STUDY DURATION: 104 WK)): inactive; negative

Structure (SMILES): CCCNC(=O)NS(=O)(=O)c1ccc(Cl)cc1
- carcinogen call (Species: MOUSE, Strain/Sex: B6C3F1/FEMALE, Route: ORAL, Dose: 0, 3317, 6635 PPM IN DIET, Dose: 0, 3317, 6635 PPM IN DIET): inactive; negative
- carcinogen call (Species: MOUSE, Strain/Sex: B6C3F1/MALE, Route: ORAL, Dose: 0, 3317, 6635 PPM IN DIET, Dose: 0, 3317, 6635 PPM IN DIET): inactive; negative
- carcinogen call [1]: inactive; negative
- carcinogen call [2]: inactive; negative

Structure (SMILES): COc1ccc2c3c1O[C@H]1[C@@H](O)C=C[C@H]4[C@@H](C2)N(C)CC[C@@]341
- carcinogen call (Species: MOUSE, Strain/Sex: B6C3F1/FEMALE, Route: ORAL, Dose: 0, 750, 1500, 3000 PPM IN DIET FOR UP TO 106 WK (STUDY DURATION: 106 WK), Dose: 0, 750, 1500, 3000 PPM IN DIET FOR UP TO 106 WK (STUDY DURATION: 106 WK)): inactive; negative
- carcinogen call (Species: MOUSE, Strain/Sex: B6C3F1/MALE, Route: ORAL, Dose: 0, 750, 1500, 3000 PPM IN DIET FOR UP TO 106 WK (STUDY DURATION: 106 WK), Dose: 0, 750, 1500, 3000 PPM IN DIET FOR UP TO 106 WK (STUDY DURATION: 106 WK)): inactive; negative
- carcinogen call (Species: RAT, Strain/Sex: F344/FEMALE, Route: ORAL, Dose: 0, 400, 800, 1600 PPM IN DIET FOR UP TO 106 WK (STUDY DURATION: 106 WK), Dose: 0, 400, 800, 1600 PPM IN DIET FOR UP TO 106 WK (STUDY DURATION: 106 WK)): inactive; negative
- carcinogen call (Species: RAT, Strain/Sex: F344/MALE, Route: ORAL, Dose: 0, 400, 800, 1600 PPM IN DIET FOR UP TO 106 WK (STUDY DURATION: 106 WK), Dose: 0, 400, 800, 1600 PPM IN DIET FOR UP TO 106 WK (STUDY DURATION: 106 WK)): inactive; negative

Structure (SMILES): O[C@@H]1[C@@H]2O[C@@H]2c2c(cc3ccc4cccc5c6ccccc6c2c3c45)[C@H]1O
- carcinogen call (Species: MOUSE, Strain/Sex: ICR/FEMALE, Route: INTRAPERITONEAL, Dose: 0, 0.7 NMOL TOTAL DOSE INJECTED ON DAY 1 OF LIFE (STUDY DURATION: 35 WK), Tumor Site: Type of Lesion: LIVER: TUMOR, LUNG: TUMOR): active; positive
- carcinogen call (Species: MOUSE, Strain/Sex: ICR/FEMALE, Route: INTRAPERITONEAL, Dose: 0, 1 NMOL (TOTAL DOSE) ADMINISTERED IN DOSES OF 1/7, 2/7, AND 4/7 ON DAYS 1, 7, AND 15 OF LIFE, RESPECTIVELY (STUDY DURA, Tumor Site: Type of Lesion: LUNG: TUMOR): active; positive
- carcinogen call (Species: MOUSE, Strain/Sex: ICR/FEMALE, Route: INTRAPERITONEAL, Dose: 0, 1 NMOL TOTAL DOSE INJECTED IN DOSES OF 1/7 ON DAY 1, 2/7 ON DAY 8, AND 4/7 ON DAY 15 OF LIFE (STUDY DURATION: 35 WK), Tumor Site: Type of Lesion: LIVER: TUMOR, LUNG: TUMOR): active; positive
- carcinogen call (Species: MOUSE, Strain/Sex: ICR/MALE, Route: INTRAPERITONEAL, Dose: 0, 0.7 NMOL TOTAL DOSE INJECTED ON DAY 1 OF LIFE (STUDY DURATION: 35 WK), Tumor Site: Type of Lesion: LUNG: TUMOR): active; positive
- carcinogen call (Species: MOUSE, Strain/Sex: ICR/MALE, Route: INTRAPERITONEAL, Dose: 0, 1 NMOL (TOTAL DOSE) ADMINISTERED IN DOSES OF 1/7, 2/7, AND 4/7 ON DAYS 1, 7, AND 15 OF LIFE, RESPECTIVELY (STUDY DURA, Tumor Site: Type of Lesion: LUNG: TUMOR, LIVER: TUMOR): active; positive
- carcinogen call (Species: MOUSE, Strain/Sex: ICR/MALE, Route: INTRAPERITONEAL, Dose: 0, 1 NMOL TOTAL DOSE INJECTED IN DOSES OF 1/7 ON DAY 1, 2/7 ON DAY 8, AND 4/7 ON DAY 15 OF LIFE (STUDY DURATION: 35 WK), Tumor Site: Type of Lesion: LIVER: TUMOR, LUNG:TUMOR): active; positive
- carcinogen call (Species: RAT, Strain/Sex: CD-1/FEMALE, Route: INJECTION, Dose: 0, 0.2 UMOL IN 0.1 ML DMSO INJECTED BENEATH EACH OF THE 6 NIPPLES ON THE LEFT SIDE (STUDY DURATION: 41 WK), Tumor Site: Type of Lesion: MAMMARY GLAND: TUMOR): active; positive
- carcinogen call (Species: RAT, Strain/Sex: STRAIN-CD/FEMALE, Route: INJECTION, Dose: 0, 0.2 UMOL IN 0.1 ML DMSO INJECTED UNDER EACH OF THE 3 LEFT THORACIC NIPPLES FOLLOWED THE NEXT DAY BY SIMILAR TREATMENT, Tumor Site: Type of Lesion: MAMMARY GLAND: TUMOR): active; positive

Structure (SMILES): CN(C)N
- carcinogen call (Species: HAMSTER, Strain/Sex: SYRIAN/FEMALE, Route: SUBCUTANEOUS, Dose: 0, 8, 17, 35 MG/KG BW IN 0.9% SALINE 1/WK FOR LIFE (STUDY DURATION: LIFE SPAN), Dose: 0, 8, 17, 35 MG/KG BW IN 0.9% SALINE 1/WK FOR LIFE (STUDY DURATION: LIFE SPAN)): inactive; negative
- carcinogen call (Species: HAMSTER, Strain/Sex: SYRIAN/MALE, Route: SUBCUTANEOUS, Dose: 0, 8, 17, 35 MG/KG BW IN 0.9% SALINE 1/WK FOR LIFE (STUDY DURATION: LIFE SPAN), Dose: 0, 8, 17, 35 MG/KG BW IN 0.9% SALINE 1/WK FOR LIFE (STUDY DURATION: LIFE SPAN)): inactive; negative
- carcinogen call (Species: MOUSE, Route: ORAL, Tumor Site: Type of Lesion: LUNG, BLOOD VESSELS, LIVER, KIDNEY, Tumor Site: Type of Lesion: LUNG, BLOOD VESSELS, LIVER, KIDNEY): active; positive

Structure (SMILES): C1CC[CH]([Sn]([CH]2CCCCC2)[CH]2CCCCC2)CC1
- carcinogen call (Species: Mouse, Strain/Sex: B6C3F1/Female (50/group), Route: Oral, Dose: 0, 1, 3, 6 mg/kg of 98% pure cyhexatin in diet for 2 years, Dose: 0, 1, 3, 6 mg/kg of 98% pure cyhexatin in diet for 2 years): inactive; negative, (dpr evaluator indicated inadequate justification of dose and too narr
- carcinogen call (Species: Mouse, Strain/Sex: B6C3F1/Male (50/group), Route: Oral, Dose: 0, 1, 3, 6 mg/kg of 98% pure cyhexatin in diet for 2 years, Dose: 0, 1, 3, 6 mg/kg of 98% pure cyhexatin in diet for 2 years): inactive; negative, (dpr evaluator indicated inadequate justification of dose and too narr

Structure (SMILES): Cc1cc(C(C)(C)C)c(O)c(C(C)(C)C)c1
- carcinogen call (Species: MOUSE, Strain/Sex: B6C3F1/FEMALE, Route: ORAL, Dose: 0, 3000, 6000 PPM IN DIET, Dose: 0, 3000, 6000 PPM IN DIET): inactive; negative
- carcinogen call (Species: MOUSE, Strain/Sex: B6C3F1/MALE,FEMALE, Route: ORAL, Dose: 200, 1000, 5000 PPM IN DIET FOR 96 WK, Dose: 200, 1000, 5000 PPM IN DIET FOR 96 WK): inactive; negative
- carcinogen call (Species: MOUSE, Strain/Sex: B6C3F1/MALE, Route: ORAL, Dose: 0, 3000, 6000 PPM IN DIET, Dose: 0, 3000, 6000 PPM IN DIET): inactive; negative
- carcinogen call [1]: inactive; negative
- carcinogen call [2]: inactive; negative

Structure (SMILES): CN1C(C(=O)Nc2ccccn2)=C(O)c2sc(Cl)cc2S1(=O)=O
- carcinogen call (Species: RAT, Strain/Sex: SPRAGUE-DAWLEY/FEMALE, Route: GAVAGE, Dose: 0, 0.0625, 0.125, 0.250 MG/KG BW/D FOR 104 WK, HIGH DOSE REDUCED TO 0.0200 MG/KG FROM STUDY WK 42 TO 50 THEN TO 0.160 MG, Dose: 0, 0.0625, 0.125, 0.250 MG/KG BW/D FOR 104 WK, HIGH DOSE REDUCED TO 0.0200 MG/KG FROM STUDY WK 42 TO 50 THEN TO 0.160 MG): inactive; negative
- carcinogen call (Species: RAT, Strain/Sex: SPRAGUE-DAWLEY/MALE, Route: GAVAGE, Dose: 0, 0.0625, 0.125, 0.250 MG/KG BW/D FOR 104 WK (STUDY DURATION: 104 WK), Dose: 0, 0.0625, 0.125, 0.250 MG/KG BW/D FOR 104 WK (STUDY DURATION: 104 WK)): inactive; negative
